From patent US12077607B2, “Functional and therapeutic effects of PAR4 cleavage by cathepsin G” (UNIVERSITY OF UTAH RESEARCH FOUNDATION, priority 2021, dated 2024)
Changes are numbered by the printed parent chain.

Key:
washed platelets [1] = test: Platelet calcium flux assay; format: cell-based, human; conditions: CatG 500 nM
Description: Platelet calcium flux assay. Washed platelets were incubated at 37° C. for 1 hour in Tyrode's buffer (supplemented with pgel and heparin) with Fura-2AM (final concentration 2 μM). Platelets were washed and resuspended to a final concentration of 4×10^8/mL. Platelets were dispensed into a Costar 96-well half area clear bottom plate and placed in the Flexstation 3 (Molecular Devices) where cathepsin G (500 nM), buffer, or peptides (2 mM) were injected onto cells and calcium flux monitored.
(§1) GYPGQV-NH2 (SEQ ID NO: 5), RALLLGWVPTR-NH2 (SEQ ID NO: 1), ALLLGWVPTR-NH2 (SEQ ID NO: 2), RALLLG-NH2 (SEQ ID NO: 4). Peptides were synthesized by BIOMATIK (Wilmington, DE, USA) at similar purities. All peptides were suspended in 50% DMSO and 50% ethanol. To measure platelet activation, washed platelets were stimulated with various concentrations of the peptide in the presence of CD41-APC, P-selectin (PE) and PAC-1 (FITC) for 15 minutes at 37° C. and then fixed with FACS Lysis Buffer. Samples were immediately run on a Cytoflex flow cytometer. In some experiments, platelets were stimulated with peptides and platelet aggregation performed as described above. Platelet calcium flux was induced by RALLLGWVPTR (2 mM; SEQ ID NO: 1), CatG (500 nM), ALLLGWVPTR (2 mM; SEQ ID NO: 2) or tyrodes buffer and monitored as described above.

washed platelets [2] = test: Platelet activation by flow cytometry (PAC-1 binding, P-selectin); format: cell-based, human
Description: Platelet isolation, aggregation, and activation. Human washed platelets were prepared and resuspended in Tyrode's Buffer at 2×10^8/mL as described (Edelstein et al., Nat Med. 2013; 19(12):1609-1616). For human and dog platelet comparisons, platelets were prepared using a modified human platelet protocol with final concentrations of […] (Cayman Chemical, Ann Arbor, MI, USA) used during centrifugation steps. Centrifugations after Tyrode's washes was decreased to 1,250×g as described in Cremer et al., PLOS One. 2019; 14(11): e0224891. Platelet aggregation was measured under stirring conditions at 37° C. using a PAP-8E aggregometer after treatment with the following agonists: arachidonic acid (Bio/Data Corporation, Horsham, PA, USA), cathepsin G, elastase, proteinase 3 (Athens Research Group), α-thrombin (Sigma, St. Louis, MO, USA), PAR-1 peptide (SFLLRN) (GL Biochem, China). P-selectin and PAC-1 were measured as previously described (Yee et al., J Thromb Haemost. 2006; 4(9):2043-2050; Tourdot et al., Arterioscler Thromb Vasc Biol. 2014; 34(12):2644-2650).
as §1

WT human PAR4 (hPAR4) = target: T1, WT human PAR4 (hPAR4) (Homo sapiens, UniProt Q96RI0); test: PAR4 calcium flux assay in HEK293T/17 cells expressing WT PAR4; format: cell-based; conditions: CatG 2.5 μM; 100 nM vorapaxar
T1 construct: Flag; expressed in transfected cells; host or cells: HEK293T/17 (ATCC CRL-11268)
T1 sequence (Q96RI0 18-385): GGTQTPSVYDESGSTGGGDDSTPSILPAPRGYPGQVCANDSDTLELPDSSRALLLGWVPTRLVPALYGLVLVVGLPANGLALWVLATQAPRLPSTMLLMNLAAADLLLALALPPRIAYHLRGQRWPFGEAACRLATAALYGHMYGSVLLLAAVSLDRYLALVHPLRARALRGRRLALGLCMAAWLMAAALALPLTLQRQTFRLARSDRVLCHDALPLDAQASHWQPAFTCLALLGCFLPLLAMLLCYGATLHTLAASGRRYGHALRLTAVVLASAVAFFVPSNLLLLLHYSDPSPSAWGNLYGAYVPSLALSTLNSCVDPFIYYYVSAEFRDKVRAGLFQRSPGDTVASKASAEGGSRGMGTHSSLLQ
Description: PAR4 calcium flux assays. PAR4-dependent calcium flux was measured using Fura2-QBT in platelets and HEK293T/17 cells with wild-type (WT) and mutant PAR4 (Tourdot et al., Arterioscler Thromb Vasc Biol. 2014; 34(12):2644-2650).
(§2) PAR4 mutant calcium flux assays. Using Quikchange Lightning Site-Directed mutagenesis (Agilent) per manufacturing instructions, pCMV-Flag-PAR4-S66E, pCMV-Flag-PAR4-S67E, and pCMV-Flag-PAR4-R68E were generated from mutation of pCMV-Flag-PAR4 and confirmed by sequencing (University of Utah DNA Sequencing Core). Prior to transfection, HEK293T/17 cells (ATCC CRL-11268) were seeded at 4.5×10^4/mL. The following day, cells were transfected with the plasmid of interest using Lipofectamine 2000 (Invitrogen, Carlsbad, CA, USA). Twenty-four hours after transfection, media was removed and replaced with Optimem w/Glutamax (Gibco, Carlsbad, CA, USA) containing vorapaxar (100 nM) (Cayman Chemical, Ann Arbor, MI, USA) and Fura2-QBT (Molecular Devices). Following incubation for 1 hour at 37° C., plate was placed in the Flexstation 3 (Molecular Devices) where agonists, Tyrode's Buffer, cathepsin G (2.5 μM), or α-thrombin (1.5 U/mL), were injected onto cells and calcium mobilization was monitored and recorded.

PAR4-S66E = target: T2, PAR4-S66E (Homo sapiens, UniProt Q96RI0, S66E); test: PAR4 mutant calcium flux assay, HEK293T/17 cells, S66E; format: cell-based; conditions: 100 nM vorapaxar
T2 construct: Flag; expressed in transfected cells; host or cells: HEK293T/17 (ATCC CRL-11268)
T2 sequence (Q96RI0 18-385 S66E): T1 sequence (Q96RI0 18-385) with S49E
Description: as §2

[3] = CatG stimulation, increasing concentrations

| Substance | peak platelet calcium flux, CatG compared with RALLLGWVPTR (washed platelets [1]; RA-11mer 2 mM) | platelet calcium flux (washed platelets [1]; peptides 2 mM, FURA2-AM loaded washed platelets) | P-selectin expression, PAR4 Thr120 homozygous platelets compared with Ala120 (washed platelets [2]; [3]) | αIIbβ3 activation, PAR4 Thr120 homozygous platelets compared with Ala120 (washed platelets [2]; [3]) | αIIbβ3 activation (PAC-1 binding) induced by neutrophil serine protease (washed platelets [2]; washed platelets, varying concentrations) | CatG-induced calcium flux, WT PAR4 compared with mock transfection (WT human PAR4 (hPAR4)) | CatG-induced calcium flux, S66E mutant compared with WT (PAR4-S66E; CatG 2.5 μM) | thrombin-induced calcium flux, S66E mutant compared with WT (PAR4-S66E; thrombin 1.5 U/mL) |
| --- | --- | --- | --- | --- | --- | --- | --- | --- |
| CatG: serine protease cathepsin G released by activated neutrophils | similar | decreased over time | modest but significantly greater | modest but significantly greater | only protease to induce | increased calcium flux | slight decrease | – |
| thrombin | – | – | – | – | – | – | – | None of the PAR4 mutants were significantly different than WT |
